Experimental data as given in article PMC5030486, “Neprilysin is a Mediator of Alternative Renin-Angiotensin-System Activation in the Murine and Human Kidney” (Scientific Reports, 2016).
Ends that are not written are not given here. Peptide text beside a SMILES is read from it. * marks the point of attachment. Cbz = O=C(OCc1ccccc1)*

How the values were obtained:
[1] = tested on: Ang-(1-7) and Ang II formation from Ang I (NEP, PEP, ACE) in murine kidney homogenates; type: biochemical, mouse
Procedure: (§1) Angiotensin peptide quantification by liquid chromatography tandem-mass spectrometry analysis (LC-MS/MS) was performed by Attoquant Diagnostics GmbH (Vienna, Austria) as previously described.

[2] = tested on: Ang-(1-7) and Ang II formation from Ang I (NEP, PEP, ACE, chymase) in human kidney homogenates
Procedure: (§2) This study was approved by the Ethics Committee of the Medical University of Vienna (EK #1496/2014) and was performed in accordance to the good clinical practice guidelines. Written informed consent was obtained before biopsies were taken perioperative from 5 kidney donors in 2014. Renal biopsies were either snap frozen in liquid nitrogen for angiotensin metabolism analysis or fixed in formalin for histological examination.
Metabolic RAS analysis was performed by Attoquant Diagnostics GmbH, Vienna, Austria. Renal biopsies of mice and humans were extracted and homogenized in phosphate-buffered saline (PBS) using low-energy sonication. The metabolism of spiked Ang I, Ang II (Fisher Scientific) or recombinant murine AGT (Sino Biological Inc.) for the renin activity assay, respectively, was assayed in homogenates after ex vivo incubation at 37 °C in presence or absence of specific enzyme inhibitors. […] Aminopeptidase Inhibitor (10 μM, Sigma-Aldrich) was added to all samples.
The enzyme activity was calculated by determining the inhibitor sensitive part of product formation in incubated samples and is presented as a product formation in ng of the corresponding angiotensin product per μg protein per hour. In order to proof linearity of the assay in dependence of enzyme abundance, Ang I and Ang II metabolism were assayed in serial diluted kidney homogenates (Supplementary Fig. 6). All experiments were performed in the linear range of the assay.
as §1

[3] = biological target: T1, NEP (Mus musculus, UniProt Q61391); assay: MALDI-Imaging of Ang I to Ang-(1-7) turnover in murine kidney cryo-sections; type: biochemical
T1 construct: Consecutive tissue sections were prepared from fresh frozen kidneys (n = 4); from tissue; host or cells: murine kidney cryo-sections (fresh frozen)
T1 sequence (Q61391 1-750): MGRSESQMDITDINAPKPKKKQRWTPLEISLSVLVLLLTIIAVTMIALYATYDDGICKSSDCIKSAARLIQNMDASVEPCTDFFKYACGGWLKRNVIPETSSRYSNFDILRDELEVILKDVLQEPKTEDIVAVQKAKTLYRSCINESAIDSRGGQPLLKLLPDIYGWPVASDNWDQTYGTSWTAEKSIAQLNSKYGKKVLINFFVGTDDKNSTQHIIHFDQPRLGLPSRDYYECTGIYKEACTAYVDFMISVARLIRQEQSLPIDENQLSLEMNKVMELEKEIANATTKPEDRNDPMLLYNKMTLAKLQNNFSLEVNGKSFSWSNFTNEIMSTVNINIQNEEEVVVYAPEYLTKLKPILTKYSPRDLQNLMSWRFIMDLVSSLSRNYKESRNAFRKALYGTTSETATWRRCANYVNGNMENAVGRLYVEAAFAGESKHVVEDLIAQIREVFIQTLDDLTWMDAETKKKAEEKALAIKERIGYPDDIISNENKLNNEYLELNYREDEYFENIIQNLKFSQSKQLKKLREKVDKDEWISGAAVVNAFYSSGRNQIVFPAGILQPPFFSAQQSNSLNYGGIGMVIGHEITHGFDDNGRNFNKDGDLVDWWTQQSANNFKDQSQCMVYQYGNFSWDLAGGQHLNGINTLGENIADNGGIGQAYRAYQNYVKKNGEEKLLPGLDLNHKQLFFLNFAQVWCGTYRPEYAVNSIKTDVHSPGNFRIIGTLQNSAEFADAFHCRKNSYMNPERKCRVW
Procedure: Consecutive tissue sections were prepared from fresh frozen kidneys (n = 4) as previously described[37] and incubated with 772 μM Ang I at 37 °C for 5 min. […] The imaging technique is described in detail elsewhere.

[4] = tested on: ACE; settings: cited from earlier work
[5] = tested on: CES1; settings: liver; cited from earlier work
[6] = tested on: Ang-(1-7) formation from Ang II (ACE2, PCP) in human kidney homogenates; assay: Ang II turnover to Ang-(1-7) in human kidney biopsy homogenates; type: biochemical; settings: human kidney biopsy homogenate, inhibitor sensitive formation rate of Fig. 2d, mean ± s.d., n = 5
Procedure: as §2
Metabolic RAS analysis was performed by Attoquant Diagnostics GmbH, Vienna, Austria. Renal biopsies of mice and humans were extracted and homogenized in phosphate-buffered saline (PBS) using low-energy sonication. The metabolism of spiked Ang I, Ang II (Fisher Scientific) or recombinant murine AGT (Sino Biological Inc.) for the renin activity assay, respectively, was assayed in homogenates after ex vivo incubation at 37 °C in presence or absence of specific enzyme inhibitors. […]
The enzyme activity was calculated by determining the inhibitor sensitive part of product formation in incubated samples and is presented as a product formation in ng of the corresponding angiotensin product per μg protein per hour. […]
as §1

[7] = tested on: murine kidney angiotensin levels; assay: Renal angiotensin metabolites in mice treated i.p. with NEP inhibitor; type: in vivo, mouse; settings: 50 mg/kg i.p.
Procedure: (§3) 10 to 12 weeks old female wild-type with C57BL/6j background were maintained at the animal care facility of the University Duesseldorf, Germany under a 12 h light/dark cycle, normal chew (SNIFF, Soest) and tap water ad libitum. Vehicle (50% DMSO) or NEP-inhibitor (LBQ657 (Sigma-Aldrich): 50 mg/kg) were administrated i.p. 4 hours prior to kidney and heparin plasma sampling. Kidneys were obtained as given above, while heparin plasma was incubated for 30 min at 37 °C for equilibrium analysis, stabilized[38] and stored at −80 °C until shipment.
as §1

[8] = tested on: murine plasma equilibrium angiotensin levels; assay: Equilibrium plasma angiotensin metabolites in mice treated i.p. with NEP inhibitor; type: in vivo, mouse; settings: 50 mg/kg i.p., 4 hours, mean ± s.e.m., n = 5
Procedure: as §3, §1

[9] = tested on: Ang-(1-7) formation from Ang II (ACE2, PCP) in murine kidney homogenates; assay: Ang II turnover to Ang-(1-7) in murine kidney homogenates with and without enzyme inhibitors; type: biochemical, mouse; settings: Ang II spike, 37 °C, LC-MS/MS, n = 4
Procedure: as §1

[10] = 4 hours prior to sampling, LC-MS/MS, mean ± s.e.m., n = 5
[11] = ratio of renal levels, 4 hours, mean ± s.e.m., n = 5
[12] = heparin plasma incubated 30 min at 37 °C, LC-MS/MS
[13] = ratio of equilibrium plasma levels
[14] = mouse kidney homogenate, Ang I spike, 37 °C, lisinopril 10 μM, LC-MS/MS, n = 4

O=C(O)CNC(=O)C(CS)Cc1ccccc1 (racemic) [DL-thiorphan]
Reduction of Ang-(1-7) formation from Ang I ([1]; mouse kidney homogenate, Ang I spike, 37 °C, DL-thiorphan 100 μM used only in combination with lisinopril 10 μM, LC-MS/MS): 75.2 ± 1.8% | Effect on turnover from Ang I to Ang-(1-7) ([1]; mouse kidney homogenate, DL-thiorphan 100 μM with lisinopril 10 μM, n = 4): reduced significantly | Effect on turnover from Ang I to Ang-(1-7) ([2]; human kidney biopsy homogenate, DL-thiorphan 100 μM with lisinopril 10 μM, n = 5): reduced significantly | Effect on Ang-(1-7) formation from Ang I, MALDI-Imaging intensity ([3]; murine kidney cryo-sections, 772 μM Ang I, 37 °C, 5 min, 100 μM DL-thiorphan in presence of 10 μM lisinopril, n = 4, p = 0.045 vs. 10 μM lisinopril): significant reduction of Ang-(1-7) formation from Ang I | ACE inhibitory activity [4]: weak ACE inhibitory activity

CCOC(=O)[C@H](C)C[C@@H](Cc1ccc(-c2ccccc2)cc1)NC(=O)CCC(=O)O [AHU-377]
Activation of the prodrug [5]: physiologically activated in the liver by CES1

CC[C@H](C)[C@H](NC(=O)[C@H](Cc1ccc(O)cc1)NC(=O)[C@@H](NC(=O)[C@H](CCCNC(=N)N)NC(=O)[C@@H](N)CC(=O)O)C(C)C)C(=O)N[C@@H](Cc1cnc[nH]1)C(=O)N1CCC[C@H]1C(=O)N[C@@H](Cc1ccccc1)C(=O)O [Ang II, angiotensin II]
Enzymatic contribution of ACE2, Ang II to Ang-(1-7) [6]: 88.2 ± 4.3%

C[C@H](C[C@@H](Cc1ccc(-c2ccccc2)cc1)NC(=O)CCC(=O)O)C(=O)O [LBQ657]
Renal Ang I [7, 10]: 277 ± 31 pg/g | Renal Ang II [7, 10]: 642 ± 99 pg/g | Renal Ang-(1-7) [7, 10]: 35 ± 4 pg/g | Renal Ang-(1-9) [7, 10]: 162 ± 10 pg/g | Renal Ang-(2-8) [7, 10]: 195 ± 28 pg/g | Renal Ang-(2-10) [7, 10]: 89 ± 16 pg/g | Reduction of Ang-(1-7) levels in the murine kidney ([7]; 4 hours prior to sampling, LC-MS/MS, p = 0.026): 53.1 ± 10.6% | Renal Ang-(1-7)/Ang I (x100) [7, 11]: 13.4 ± 2.0 | Renal Ang-(1-7)/Ang II (x100) [7, 11]: 6.1 ± 1.2 | Equilibrium plasma Ang I [8, 12]: 970 ± 341 pg/mL | Equilibrium plasma Ang II [8, 12]: 1423 ± 540 pg/mL | Equilibrium plasma Ang-(1-5) [8, 12]: 73 ± 34 pg/mL | Equilibrium plasma Ang-(1-7) [8, 12]: 20 ± 7 pg/mL | Equilibrium plasma Ang-(2-8) [8, 12]: 269 ± 91 pg/mL | Equilibrium plasma Ang-(3-8) [8, 12]: 114 ± 36 pg/mL | Equilibrium plasma Ang-(1-7)/Ang I (x100) [8, 13]: 1.8 ± 0.2 | Equilibrium plasma Ang-(1-7)/Ang II (x100) [8, 13]: 1.5 ± 0.2

CC(C)C[C@H](N[C@@H](Cc1cncn1Cc1cc(Cl)cc(Cl)c1)C(=O)O)C(=O)O [MLN-4760]
Effect on Ang-(1-7) formation from Ang II, ACE2 KO kidney ([9]; ACE2 KO mouse kidney homogenate in PBS, MLN-4760 10 μM, aminopeptidase inhibitor 10 μM in all samples): no effect | Effect on Ang-(1-7) formation from Ang II, wild-type kidney ([9]; wild-type mouse kidney homogenate in PBS, MLN-4760 10 μM): reduced Ang-(1-7) formation in wild-type mice to the level of ACE2 KOs

O=C[C@@H]1CCCN1C(=O)[C@@H]1CCCN1C(=O)OCc1ccccc1 [ZPP, N-benzyloxycarbonyl-prolyl-prolinal] (Cbz-Pro-Pro-aldehyde)
Effect on Ang-(1-7) formation from Ang II, ZPP added to MLN-4760 ([9]; mouse kidney homogenate, ZPP 20 μM in addition to MLN-4760 10 μM): abolished Ang-(1-7) formation completely | Effect on Ang-(1-7) formation from Ang I, ZPP on top of lisinopril and DL-thiorphan ([1]; mouse kidney homogenate, Ang I spike, 37 °C, ZPP 20 μM, LC-MS/MS, n = 4): further significantly reduced Ang-(1-7) formation

CC(C)C[C@H](NC(=O)[C@@H](NC(=O)N[C@@H](Cc1ccccc1)C(=O)O)[C@@H]1CCN=C(N)N1)C(=O)N[C@H](C=O)Cc1ccccc1 [chymostatin]
Effect on ACE independent Ang II formation from Ang I ([2]; human kidney biopsy homogenate, Ang I spike, 37 °C, chymostatin 10 μM, LC-MS/MS, n = 5): At least a part of ACE independent Ang II formation was blocked

NCCCC[C@H](N[C@@H](CCc1ccccc1)C(=O)O)C(=O)N1CCC[C@H]1C(=O)O [lisinopril]
Effect on Ang II formation from Ang I [1, 14]: efficiently blocked | Effect on Ang-(1-7) formation from Ang I [1, 14]: remained unaffected | Effect on Ang II formation from Ang I ([2]; human kidney biopsy homogenate, Ang I spike, 37 °C, lisinopril 10 μM, LC-MS/MS, n = 5): not able to completely abolish Ang II formation | Ang-(1-7) signal with increasing inhibitor concentration ([3]; murine kidney slices incubated with Ang I, lisinopril 0 μM–10 μM, MALDI-Imaging): concentration dependent increase of Ang-(1-7)

DRVYIHPFHL [Ang I, angiotensin I]
Enzymatic contribution of NEP, Ang I to Ang-(1-7) [1]: 50 ± 1% | Enzymatic contribution of PEP, Ang I to Ang-(1-7) [1]: 23 ± 1% | Share of Ang I converted directly to Ang-(1-7) [1]: 73.4 ± 2.1% | Share of Ang I metabolized to Ang II (ACE) [1]: 26.6 ± 2.1% | Enzymatic contribution of ACE, Ang I to Ang II [2]: 25 ± 7% | Enzymatic contribution of NEP, Ang I to Ang-(1-7) [2]: 63 ± 10% | Enzymatic contribution of PEP, Ang I to Ang-(1-7) [2]: 10 ± 3% | Enzymatic contribution of chymase, Ang I to Ang II [2]: 2 ± 2% | Share of Ang I converted to Ang II [2]: 27 ± 9% | Share of Ang I converted to Ang-(1-7) [2]: 73 ± 9%
